Measurements taken from the CheMixHub viscosity set.

Assay: xn = mol fraction of the nth substance listed

CCCOCC(C)O (centres undefined) + CCNCC
viscosity [mPa·s], 100 kPa
Conditions	298.15 K	303.15 K	308.15 K
x1 = 0.0509	0.3488	0.3318	0.3107
x1 = 0.1002	0.3949	0.3733	0.3489
x1 = 0.1505	0.4552	0.4261	0.4014
x1 = 0.2	0.519	0.4819	0.4542
x1 = 0.3003	0.6838	0.6321	0.5992
x1 = 0.4	0.8976	0.8055	0.7606
x1 = 0.5002	1.171	1.034	0.9506
x1 = 0.5999	1.436	1.264	1.15
x1 = 0.7	1.742	1.514	1.365
x1 = 0.7982	2.014	1.738	1.562
x1 = 0.9	2.265	1.94	1.739
x1 = 0.9496	2.361	2.021	1.814

C1COCO1 + CCO
303.15 K, 101 kPa
Conditions	viscosity [mPa·s]
x1 = 0.06463	0.898
x1 = 0.1346	0.838
x1 = 0.2104	0.7691
x1 = 0.2931	0.6852
x1 = 0.3834	0.6333
x1 = 0.4826	0.6121
x1 = 0.592	0.591
x1 = 0.7133	0.5886
x1 = 0.8484	0.569

C=CCN(CC=C)C(=O)C(Cl)Cl + CCO
viscosity [mPa·s], 101 kPa
Conditions	x1 = 0.004764	x1 = 0.01126	x1 = 0.01785	x1 = 0.02455	x1 = 0.03127	x1 = 0.03725	x1 = 0.04407
293.15 K	1.208	1.238	1.258	1.284	1.314	1.334	1.372
298.15 K	1.108	1.134	1.162	1.178	1.201	1.215	1.245
303.15 K	1.008	1.025	1.043	1.062	1.08	1.1	1.116
308.15 K	0.9132	0.9322	0.9453	0.9641	0.9854	0.9997	1.02
313.15 K	0.832	0.8475	0.8596	0.8743	0.8941	0.9139	0.9264

CCCOCC(C)O (centres undefined) + CCO
viscosity [mPa·s], 101.33 kPa
Conditions	298.15 K	308.15 K	318.15 K
x1 = 0.05	1.18	0.974	0.813
x1 = 0.1	1.272	1.041	0.863
x1 = 0.15	1.363	1.108	0.911
x1 = 0.2	1.448	1.171	0.96
x1 = 0.25	1.534	1.231	1.005
x1 = 0.3	1.612	1.288	1.046
x1 = 0.35	1.716	1.362	1.105
x1 = 0.4	1.79	1.417	1.142
x1 = 0.45	1.862	1.467	1.177
x1 = 0.5	1.928	1.513	1.21
x1 = 0.55	1.998	1.557	1.241
x1 = 0.6	2.056	1.602	1.274
x1 = 0.65	2.113	1.651	1.297
x1 = 0.7	2.168	1.674	1.322
x1 = 0.75	2.219	1.706	1.345
x1 = 0.8	2.264	1.734	1.368
x1 = 0.8498	2.307	1.766	1.389
x1 = 0.9	2.354	1.79	1.406
x1 = 0.95	2.369	1.815	1.414

CN(C)P(=O)(N(C)C)N(C)C + CCO
303.15 K, 101.3 kPa
Conditions	viscosity [mPa·s]
x1 = 0.1007	1.255
x1 = 0.2043	1.461
x1 = 0.2959	1.627
x1 = 0.3983	1.807
x1 = 0.5079	2.005
x1 = 0.5998	2.18
x1 = 0.698	2.362
x1 = 0.8012	2.557
x1 = 0.9052	2.75

Cc1cccc(C)n1 + CCO
298.15 K, 101 kPa
Conditions	viscosity [mPa·s]
x1 = 0.0454	1.15
x1 = 0.09639	1.164
x1 = 0.2211	1.202
x1 = 0.3891	1.133
x1 = 0.6241	1.02
x1 = 0.8038	0.9686

CC(=O)c1ccccc1 + CCOC(=O)OCC
viscosity [mPa·s], 101 kPa
Conditions	x2 = 0.0972	x2 = 0.1515	x2 = 0.2512	x2 = 0.3615	x2 = 0.4921	x2 = 0.5705	x2 = 0.6654	x2 = 0.7584	x2 = 0.8932	x2 = 0.9425
303.15 K	1.413	1.358	–	1.155	–	0.977	0.906	0.843	0.76	0.732
308.15 K	1.286	1.237	1.15	1.059	0.958	0.902	0.839	0.783	0.708	0.683
313.15 K	1.205	1.159	1.079	0.995	0.901	0.85	0.791	0.738	0.669	0.646

CC(=O)c1ccccc1 + CCOC(C)=O
viscosity [mPa·s], 100 kPa
Conditions	x1 = 0.0775	x1 = 0.1574	x1 = 0.2396	x1 = 0.3244	x1 = 0.4119	x1 = 0.5021	x1 = 0.5953	x1 = 0.6915	x1 = 0.7909	x1 = 0.8937
303.15 K	0.4772	0.5756	0.6734	0.7711	0.8688	0.9666	1.064	1.162	1.26	1.358
313.15 K	0.424	0.5047	0.5856	0.6665	0.7474	0.8284	0.9093	0.9902	1.071	1.152
323.15 K	0.374	0.4427	0.5114	0.5801	0.6488	0.7175	0.7862	0.8549	0.9236	0.9923

O=S(Cl)Cl + CCOC(C)=O
298.15 K, 101 kPa
Conditions	viscosity [mPa·s]
x1 = 0.225	0.4911
x1 = 0.316	0.5174
x1 = 0.534	0.5759
x1 = 0.7	0.6117
x1 = 0.83	0.6177

O=S(Cl)Cl + CCOCC
298.15 K, 101 kPa
Conditions	viscosity [mPa·s]
x1 = 0.334	0.3365
x1 = 0.845	0.548

ClC(Cl)C(Cl)(Cl)Cl + CCOc1ccccc1
298.15 K, 101 kPa
Conditions	viscosity [mPa·s]
x2 = 0.0971	2.1
x2 = 0.2214	1.92
x2 = 0.4895	1.607
x2 = 0.6798	1.393
x2 = 0.903	1.206

C1COCO1 + CN(C)C=O
viscosity [mPa·s], 101 kPa
Conditions	x2 = 0.1012	x2 = 0.2021	x2 = 0.3028	x2 = 0.4032	x2 = 0.5033	x2 = 0.6032	x2 = 0.7028	x2 = 0.8021	x2 = 0.9012
298.15 K	0.567	0.568	0.578	0.594	0.614	0.642	0.676	0.715	0.759
308.15 K	0.506	0.51	0.52	0.535	0.552	0.578	0.606	0.637	0.671
318.15 K	0.467	0.477	0.488	0.5	0.515	0.534	0.555	0.576	0.597
